Reference: patent US20110166121A1 (LG LIFE SCIENCES LTD., priority 2008, published 2011)

Experiments:
Human P2Y12 receptor = target: T1, Human P2Y12 receptor (Homo sapiens, UniProt Q9H244); assay: Human P2Y12 receptor cell membrane binding assay with [3H] 2-Mes-ADP; settings: 1 nM [3H] 2-Mes-ADP, membranes of HEK cells expressing P2Y12 receptor; read-out: Binding activity (IC50)
T1 construct: expressed in transfected cells; host or cells: HEK cells
Method in brief: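 Competition binding used 1 nM [3H]2-MeS-ADP on P2Y12-expressing HEK cell membranes for 1 h at room temperature, followed by filtration and scintillation counting.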

[1] = test system: Human platelet aggregation caused by ADP; assay: Inhibition of ADP-induced platelet aggregation (Mimic-human PRP); assay type: cell-based; settings: 20 μM ADP, human platelet concentrate diluted with PPP, absorption at 595 nm
Method in brief: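 Ki came from non-linear sigmoidal fits of inhibition, measured as the 3-min rise in absorbance at 595 nm after 20 μM ADP, relative to 0/20 μM ADP controls. Platelets (3–4×10^8/mL in PPP-diluted human PRP) were exposed to 0.01–30 μM compound for 20 min at room temperature beforehand.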

T1 sequence (Q9H244 whole entry): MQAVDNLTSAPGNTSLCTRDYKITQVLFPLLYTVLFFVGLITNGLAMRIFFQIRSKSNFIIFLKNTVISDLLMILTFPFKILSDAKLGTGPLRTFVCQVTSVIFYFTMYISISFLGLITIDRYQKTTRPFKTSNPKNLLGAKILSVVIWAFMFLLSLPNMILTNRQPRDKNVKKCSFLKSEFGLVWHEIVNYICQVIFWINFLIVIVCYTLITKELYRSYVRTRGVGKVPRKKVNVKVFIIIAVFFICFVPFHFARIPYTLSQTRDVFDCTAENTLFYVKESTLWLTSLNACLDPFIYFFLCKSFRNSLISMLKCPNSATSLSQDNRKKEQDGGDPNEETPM

SMILES | IC50 (Human P2Y12 receptor) [nM] | Ki [1] [nM]
CCCc1cc2c(N3CCn4c(nnc4C(F)(F)F)C3)nc(C3=N[C@H](CC(=O)OC(C)C)CS3)nc2s1 [Example 4-48, {(R)-2-[6-Propyl-4-(3-trifluoromethyl-5,6-dihydro-8H-[1,2,4]triazolo[4,3-a]pyrazin-7-yl)thieno[2,3-d]pyrimidin-2-yl]-4,5-dihydro-thiazol-4-yl}acetic acid isopropyl ester] | 210 | 510
CCCc1cc2c(N3CCn4c(nnc4C(F)(F)F)C3)nc(C3=N[C@H](CC(=O)O)CS3)nc2s1 [Example 4-49, {(R)-2-[6-Propyl-4-(3-trifluoromethyl-5,6-dihydro-8H-[1,2,4]triazolo[4,3-a]pyrazin-7-yl)thieno[2,3-d]pyrimidin-2-yl]-4,5-dihydro-thiazol-4-yl}acetic acid] | 33 | 11
CCCc1cc2c(N3CCn4c(nnc4C(F)(F)F)C3)nc(-c3nc(CO)cs3)nc2s1 [Example 4-50, {2-[6-Propyl-4-(3-trifluoromethyl-5,6-dihydro-8H-[1,2,4]triazolo[4,3-a]pyrazin-7-yl)thieno[2,3-d]pyrimidin-2-yl]thiazol-4-yl}methanol] | 57 | 34
CCCc1cc2c(N3CCn4c(nnc4C(F)(F)F)C3)nc(-c3nc(CC(=O)OCC)cs3)nc2s1 [Example 4-51, {2-[6-Propyl-4-(3-trifluoromethyl-5,6-dihydro-8H-[1,2,4]triazolo[4,3-a]pyrazin-7-yl)thieno[2,3-d]pyrimidin-2-yl]thiazol-4-yl}acetic acid ethyl ester] | 40 | 36
CCCc1cc2c(N3CCn4c(nnc4C(F)(F)F)C3)nc(-c3nc(CC(=O)O)cs3)nc2s1 [Example 4-52, {2-[6-Propyl-4-(3-trifluoromethyl-5,6-dihydro-8H-[1,2,4]triazolo[4,3-a]pyrazin-7-yl)thieno[2,3-d]pyrimidin-2-yl]thiazol-4-yl}acetic acid] | 14 | 38
CCCc1cc2c(N3CCn4c(nnc4C(F)(F)F)C3)nc(CC(=O)OCC)nc2s1 [Example 4-53, [6-Propyl-4-(3-trifluoromethyl-5,6-dihydro-8H-[1,2,4]triazolo[4,3-a]pyrazin-7-yl)thieno[2,3-d]pyrimidin-2-yl]acetic acid ethyl ester] | 300 | 5250
CCCc1cc2c(N3CCn4c(nnc4C(F)(F)F)C3)nc(CC(=O)O)nc2s1 [Example 4-54, [6-Propyl-4-(3-trifluoromethyl-5,6-dihydro-8H-[1,2,4]triazolo[4,3-a]pyrazin-7-yl)thieno[2,3-d]pyrimidin-2-yl]acetic acid] | 370 | 470
CCCc1cc2c(N3CCn4c(nnc4C(F)(F)F)C3)nc(CC(N)=O)nc2s1 [Example 4-55, 2-[6-Propyl-4-(3-trifluoromethyl-5,6-dihydro-8H-[1,2,4]triazolo[4,3-a]pyrazin-7-yl)-thieno[2,3-d]pyrimidin-2-yl]-acetamide] | 174 | 4.2
CCCc1cc2c(N3CCn4c(nnc4C(F)(F)F)C3)nc(CC(N)=S)nc2s1 [Example 4-56, 2-[6-Propyl-4-(3-trifluoromethyl-5,6-dihydro-8H-[1,2,4]triazolo[4,3-a]pyrazin-7-yl)-thieno[2,3-d]pyrimidin-2-yl]-thioacetamide] | 170 | 6.4
CCCc1cc2c(N3CCn4c(nnc4C(F)(F)F)C3)nc(Cc3nc(C(=O)OCC)cs3)nc2s1 [Example 4-57, 2-[6-Propyl-4-(3-trifluoromethyl-5,6-dihydro-8H-[1,2,4]triazolo[4,3-a]pyrazin-7-yl)-thieno[2,3-d]pyrimidin-2-ylmethyl]-thiazole-4-carboxylic acid ethyl ester] | 240 | 280
CCCc1cc2c(N3CCn4c(nnc4C(F)(F)F)C3)nc(Cc3nc(C(=O)O)cs3)nc2s1 [Example 4-58, 2-[6-Propyl-4-(3-trifluoromethyl-5,6-dihydro-8H-[1,2,4]triazolo[4,3-a]pyrazin-7-yl)-thieno[2,3-d]pyrimidin-2-ylmethyl]-thiazole-4-carboxylic acid] | 300 | 243
CCCc1cc2c(N3CCn4c(nnc4C(F)(F)F)C3)nc(-c3nc(CCO)cs3)nc2s1 [Example 4-59, 2-{2-[6-Propyl-4-(3-trifluoromethyl-5,6-dihydro-8H-[1,2,4]triazolo[4,3-a]pyrazin-7-yl)-thieno[2,3-d]pyrimidin-2-yl]-thiazol-4-yl}-ethanol] | 40 | 8.4
CCCc1nc2c(N3CCn4c(nnc4C(F)(F)F)C3)nc(N3CCNC(=O)C3)nc2s1 [Example 5-4, 4-[2-Propyl-7-(3-trifluoromethyl-5,6-dihydro-8H-[1,2,4]triazolo[4,3-a]pyrazin-7-yl)-thiazolo[5,4-d]pyrimidin-5-yl]-piperazin-2-one] | 72 | 57
CCCc1nc2c(N3CCn4c(nnc4C(F)(F)F)C3)nc(N3CC[C@H](N)C3)nc2s1 [Example 5-5, (S)-1-[2-Propyl-7-(3-trifluoromethyl-5,6-dihydro-8H-[1,2,4]triazolo[4,3-a]pyrazin-7-yl)-thiazolo[5,4-d]pyrimidin-5-yl]-pyrrolidin-3-ylamine] | 170 | 25
CCCc1nc2c(N3CCn4c(nnc4C(F)(F)F)C3)nc(N3CCC[C@H](C(=O)OCC)C3)nc2s1 [Example 5-6, (S)-1-[2-Propyl-7-(3-trifluoromethyl-5,6-dihydro-8H-[1,2,4]triazolo[4,3-a]pyrazin-7-yl)-thiazolo[5,4-d]pyrimidin-5-yl]-piperidine-3-carboxylic acid ethyl ester] | 630 | > 4000
CCCc1nc2c(N3CCn4c(nnc4C(F)(F)F)C3)nc(N3CCC[C@H](C(=O)O)C3)nc2s1 [Example 5-7, (S)-1-[2-Propyl-7-(3-trifluoromethyl-5,6-dihydro-8H-[1,2,4]triazolo[4,3-a]pyrazin-7-yl)-thiazolo[5,4-d]pyrimidin-5-yl]-piperidine-3-carboxylic acid] | 32 | 38
CCc1cc2c(N3CCn4c(nnc4C(F)(F)C(F)(F)F)C3)nc(OCC(O)CO)nc2s1 (centres unmarked) [Example 6-3, 3-[6-Ethyl-4-(3-pentafluoroethyl-5,6-dihydro-8H-[1,2,4]triazolo[4,3-a]pyrazin-7-yl)-thieno[2,3-d]pyrimidin-2-yloxy]-propane-1,2-diol] | 620 | 395
CCCc1cc2c(N3CCn4c(nnc4C(F)(F)C(F)(F)F)C3)nc(N3CCNC(=O)C3)nc2s1 [Example 6-4, 4-[4-(3-Pentafluoroethyl-5,6-dihydro-8H-[1,2,4]triazolo[4,3-a]pyrazin-7-yl)-6-propyl-thieno[2,3-d]pyrimidin-2-yl]-piperazin-2-one] | 128 | 308
CCCc1cc2c(N3CCn4c(nnc4C(F)(F)C(F)(F)F)C3)nc(N3CCNCC3)nc2s1 [Example 6-5, 3-Pentafluoroethyl-7-(2-piperazin-1-yl-6-propyl-thieno[2,3-d]pyrimidin-4-yl)-5,6,7,8-tetrahydro-[1,2,4]triazolo[4,3-a]pyrazine] | 266 | 940
